# Legend:
# [1] = target: T1, Rho-associated protein kinase 2 (Homo sapiens, UniProt O75116)
# Description: (§2) Inhibition of human ROCK2 by homogenous luciferase assay
# [2] = target: T1, Rho-associated protein kinase 2; remark: listed apart in the source
# Description: as §2
# [3] = target: T1, Rho-associated protein kinase 2; assay: Inhibition of human ROCK2 by IMAP assay
# Cytochrome P450 2D6 = Cytochrome P450 2D6 (Homo sapiens, UniProt P10635); assay: Inhibition of human CYP2D6 by fluorescence assay; format: ADME
# [4] = target: Serine/threonine-protein kinase N2 (Homo sapiens, UniProt Q16513)
# [5] = target: T2, Protein kinase C epsilon type (Homo sapiens, UniProt Q02156); assay: Inhibition of PKCepsilon
# T2 sequence (Q02156 whole entry): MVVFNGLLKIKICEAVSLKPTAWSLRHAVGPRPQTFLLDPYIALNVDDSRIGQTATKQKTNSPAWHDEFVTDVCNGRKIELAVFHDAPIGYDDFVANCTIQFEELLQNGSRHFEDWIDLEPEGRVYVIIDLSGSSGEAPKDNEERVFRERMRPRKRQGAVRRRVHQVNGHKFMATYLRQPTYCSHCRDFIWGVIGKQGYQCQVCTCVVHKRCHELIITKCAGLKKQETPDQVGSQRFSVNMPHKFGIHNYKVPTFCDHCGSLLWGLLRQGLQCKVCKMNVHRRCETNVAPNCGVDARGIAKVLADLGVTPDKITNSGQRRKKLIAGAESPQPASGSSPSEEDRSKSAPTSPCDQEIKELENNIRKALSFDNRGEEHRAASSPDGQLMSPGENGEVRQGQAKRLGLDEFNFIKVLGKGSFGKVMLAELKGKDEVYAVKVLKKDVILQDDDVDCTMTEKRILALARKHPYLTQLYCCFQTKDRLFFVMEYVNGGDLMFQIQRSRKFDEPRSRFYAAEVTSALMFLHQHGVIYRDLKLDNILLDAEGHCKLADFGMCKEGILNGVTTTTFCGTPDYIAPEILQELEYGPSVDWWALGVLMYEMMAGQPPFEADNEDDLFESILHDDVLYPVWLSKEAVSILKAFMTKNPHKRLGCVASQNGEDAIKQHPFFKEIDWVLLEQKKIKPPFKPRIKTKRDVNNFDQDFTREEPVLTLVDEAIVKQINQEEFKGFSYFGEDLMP
# Cytochrome P450 2C19 = Cytochrome P450 2C19 (Homo sapiens, UniProt P33261); assay: Inhibition of human CYP2C19 by fluorescence assay; format: ADME
# Chain of Cytochrome P450 2C19 (P33261 whole entry): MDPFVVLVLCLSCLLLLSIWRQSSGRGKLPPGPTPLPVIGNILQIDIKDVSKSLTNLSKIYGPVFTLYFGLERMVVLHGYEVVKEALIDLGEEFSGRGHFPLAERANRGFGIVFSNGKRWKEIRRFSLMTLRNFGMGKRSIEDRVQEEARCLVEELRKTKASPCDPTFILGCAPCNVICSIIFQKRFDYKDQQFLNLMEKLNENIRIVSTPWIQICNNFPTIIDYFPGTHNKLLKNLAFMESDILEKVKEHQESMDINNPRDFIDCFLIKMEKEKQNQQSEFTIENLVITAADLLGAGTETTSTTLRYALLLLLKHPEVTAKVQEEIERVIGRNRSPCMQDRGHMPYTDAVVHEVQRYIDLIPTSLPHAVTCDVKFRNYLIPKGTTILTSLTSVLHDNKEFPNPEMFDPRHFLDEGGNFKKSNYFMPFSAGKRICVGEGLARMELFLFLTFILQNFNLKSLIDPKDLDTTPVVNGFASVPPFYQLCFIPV
# Cytochrome P450 1A2 = target: T3, Cytochrome P450 1A2 (Homo sapiens, UniProt P05177); assay: Inhibition of human CYP1A2 by fluorescence assay; format: ADME
# T3 sequence (P05177 whole entry): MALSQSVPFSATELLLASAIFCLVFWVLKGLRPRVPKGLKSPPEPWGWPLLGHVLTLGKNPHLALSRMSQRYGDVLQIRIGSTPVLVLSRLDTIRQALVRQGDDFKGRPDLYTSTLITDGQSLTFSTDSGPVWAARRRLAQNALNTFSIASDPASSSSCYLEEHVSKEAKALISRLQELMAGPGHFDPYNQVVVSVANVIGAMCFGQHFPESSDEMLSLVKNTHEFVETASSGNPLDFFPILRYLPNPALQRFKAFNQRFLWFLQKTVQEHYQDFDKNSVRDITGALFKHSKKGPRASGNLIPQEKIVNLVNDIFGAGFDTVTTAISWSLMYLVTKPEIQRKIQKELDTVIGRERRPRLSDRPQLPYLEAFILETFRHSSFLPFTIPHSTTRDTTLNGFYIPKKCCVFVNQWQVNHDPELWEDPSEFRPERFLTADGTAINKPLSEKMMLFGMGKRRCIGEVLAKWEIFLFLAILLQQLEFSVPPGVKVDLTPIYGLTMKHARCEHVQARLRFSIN
# Cytochrome P450 3A4 [6] = target: T4, Cytochrome P450 3A4 (Homo sapiens, UniProt P08684); assay: Inhibition of human CYP3A4 using BQ substrate by fluorescence assay; format: ADME
# T4 sequence (P08684 whole entry): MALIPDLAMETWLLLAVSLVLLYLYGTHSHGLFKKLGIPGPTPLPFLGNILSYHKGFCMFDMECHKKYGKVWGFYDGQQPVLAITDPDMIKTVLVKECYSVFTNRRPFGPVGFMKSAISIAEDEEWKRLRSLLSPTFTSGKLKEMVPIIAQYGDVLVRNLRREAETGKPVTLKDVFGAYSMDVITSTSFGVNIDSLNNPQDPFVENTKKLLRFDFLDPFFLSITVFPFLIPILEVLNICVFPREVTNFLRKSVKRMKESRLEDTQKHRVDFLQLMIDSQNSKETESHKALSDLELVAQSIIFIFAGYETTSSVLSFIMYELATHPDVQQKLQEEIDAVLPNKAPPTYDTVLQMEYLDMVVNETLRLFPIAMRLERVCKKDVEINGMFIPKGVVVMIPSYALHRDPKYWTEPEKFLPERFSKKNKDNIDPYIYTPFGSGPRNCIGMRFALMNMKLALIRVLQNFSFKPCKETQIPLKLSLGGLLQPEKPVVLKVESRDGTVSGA
# [7] = Solubility at pH 7.4; format: physicochemical; conditions: buffer
# [8] = target: Serine/threonine-protein kinase MRCK beta (Homo sapiens) (UniProt Q9Y5S2); assay: Inhibition of CDC42BPB
# Chain of Serine/threonine-protein kinase MRCK beta (Homo sapiens) (Q9Y5S2 whole entry, looked up): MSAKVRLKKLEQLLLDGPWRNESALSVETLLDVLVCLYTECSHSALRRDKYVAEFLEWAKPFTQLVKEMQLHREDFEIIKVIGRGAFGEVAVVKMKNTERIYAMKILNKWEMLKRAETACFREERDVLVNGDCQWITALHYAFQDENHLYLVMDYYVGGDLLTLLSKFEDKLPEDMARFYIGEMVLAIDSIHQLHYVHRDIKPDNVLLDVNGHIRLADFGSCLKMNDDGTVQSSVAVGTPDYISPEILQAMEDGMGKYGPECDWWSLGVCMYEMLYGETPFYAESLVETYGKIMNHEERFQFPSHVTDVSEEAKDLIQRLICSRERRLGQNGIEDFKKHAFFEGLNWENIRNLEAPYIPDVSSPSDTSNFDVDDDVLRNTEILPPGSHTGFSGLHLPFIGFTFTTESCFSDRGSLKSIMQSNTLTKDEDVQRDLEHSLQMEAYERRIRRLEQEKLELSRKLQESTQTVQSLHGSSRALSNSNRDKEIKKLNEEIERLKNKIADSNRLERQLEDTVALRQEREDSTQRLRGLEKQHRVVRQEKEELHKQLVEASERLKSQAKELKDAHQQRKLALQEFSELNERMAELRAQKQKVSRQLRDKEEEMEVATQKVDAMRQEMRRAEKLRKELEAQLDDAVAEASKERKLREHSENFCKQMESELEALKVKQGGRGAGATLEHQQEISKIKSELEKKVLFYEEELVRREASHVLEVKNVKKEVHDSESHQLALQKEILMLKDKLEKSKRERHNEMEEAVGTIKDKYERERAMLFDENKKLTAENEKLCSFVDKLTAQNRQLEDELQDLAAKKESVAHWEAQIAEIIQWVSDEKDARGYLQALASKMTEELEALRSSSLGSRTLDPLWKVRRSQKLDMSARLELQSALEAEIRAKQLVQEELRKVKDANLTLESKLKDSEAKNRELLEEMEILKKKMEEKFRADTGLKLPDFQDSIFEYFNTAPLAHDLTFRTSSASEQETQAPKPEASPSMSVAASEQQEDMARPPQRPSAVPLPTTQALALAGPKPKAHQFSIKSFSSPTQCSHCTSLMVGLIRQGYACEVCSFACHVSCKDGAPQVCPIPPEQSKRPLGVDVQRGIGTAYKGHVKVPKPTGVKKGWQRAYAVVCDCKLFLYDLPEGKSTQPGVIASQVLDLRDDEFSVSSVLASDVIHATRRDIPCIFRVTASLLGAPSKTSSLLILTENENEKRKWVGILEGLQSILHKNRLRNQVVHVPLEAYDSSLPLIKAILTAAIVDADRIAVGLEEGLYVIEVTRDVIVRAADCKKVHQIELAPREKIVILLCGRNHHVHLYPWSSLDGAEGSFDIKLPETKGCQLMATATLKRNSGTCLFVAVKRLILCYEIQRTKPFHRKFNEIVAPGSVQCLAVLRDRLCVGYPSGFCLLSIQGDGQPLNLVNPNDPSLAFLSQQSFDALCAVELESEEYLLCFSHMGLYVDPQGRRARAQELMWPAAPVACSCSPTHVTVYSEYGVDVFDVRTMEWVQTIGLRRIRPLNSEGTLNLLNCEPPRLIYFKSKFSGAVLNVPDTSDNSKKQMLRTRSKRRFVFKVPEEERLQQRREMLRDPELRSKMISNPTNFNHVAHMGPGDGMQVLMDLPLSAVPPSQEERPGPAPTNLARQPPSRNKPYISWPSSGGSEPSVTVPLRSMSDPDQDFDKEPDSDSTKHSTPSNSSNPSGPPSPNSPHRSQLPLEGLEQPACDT
# [9] = (§1) Permeability from apical to basolateral side in human Caco-2 cells; format: ADME, cell-based; conditions: Caco-2, read-out: permeability
# Cytochrome P450 2C9 = Cytochrome P450 2C9 (Homo sapiens, UniProt P11712); assay: Inhibition of human CYP2C9 by fluorescence assay; format: ADME
# Chain of Cytochrome P450 2C9 (P11712 whole entry): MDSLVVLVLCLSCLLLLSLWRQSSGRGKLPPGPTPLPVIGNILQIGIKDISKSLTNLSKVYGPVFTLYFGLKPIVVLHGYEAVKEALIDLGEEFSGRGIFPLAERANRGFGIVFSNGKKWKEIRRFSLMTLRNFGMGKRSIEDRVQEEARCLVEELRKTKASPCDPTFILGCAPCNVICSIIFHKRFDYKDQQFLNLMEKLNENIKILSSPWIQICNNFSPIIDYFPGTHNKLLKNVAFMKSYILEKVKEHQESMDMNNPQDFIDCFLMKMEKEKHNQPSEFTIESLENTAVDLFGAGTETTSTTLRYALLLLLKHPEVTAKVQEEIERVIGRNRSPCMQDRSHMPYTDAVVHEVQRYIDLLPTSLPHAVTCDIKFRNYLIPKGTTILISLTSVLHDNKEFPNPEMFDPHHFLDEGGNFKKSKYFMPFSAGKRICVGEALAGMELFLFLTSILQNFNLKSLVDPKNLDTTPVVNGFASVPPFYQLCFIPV
# [10] = Permeability from basolateral to apical side in human Caco-2 cells; format: ADME, cell-based; conditions: read-out: permeability
# [11] = Metabolic stability in human liver microsomes assessed as half life; format: ADME, Microsome
# Rattus norvegicus = organism: Rattus norvegicus; assay: Induction of relaxation activity of phenylephrine-induced Sprague-Dawley rat aortic ring contraction; format: functional; conditions: Aorta
# [12] = Membrane permeability by PAMPA assay; format: ADME; conditions: read-out: permeability
# Cytochrome P450 3A4 [13] = target: T4, Cytochrome P450 3A4; assay: Inhibition of human CYP3A4 using BFC substrate by fluorescence assay; format: ADME
# Caco-2 = assay: as §1; format: ADME, cell-based; conditions: caco-2, BLD = below limit of detection
# Chain of Cytochrome P450 2D6 (P10635 whole entry): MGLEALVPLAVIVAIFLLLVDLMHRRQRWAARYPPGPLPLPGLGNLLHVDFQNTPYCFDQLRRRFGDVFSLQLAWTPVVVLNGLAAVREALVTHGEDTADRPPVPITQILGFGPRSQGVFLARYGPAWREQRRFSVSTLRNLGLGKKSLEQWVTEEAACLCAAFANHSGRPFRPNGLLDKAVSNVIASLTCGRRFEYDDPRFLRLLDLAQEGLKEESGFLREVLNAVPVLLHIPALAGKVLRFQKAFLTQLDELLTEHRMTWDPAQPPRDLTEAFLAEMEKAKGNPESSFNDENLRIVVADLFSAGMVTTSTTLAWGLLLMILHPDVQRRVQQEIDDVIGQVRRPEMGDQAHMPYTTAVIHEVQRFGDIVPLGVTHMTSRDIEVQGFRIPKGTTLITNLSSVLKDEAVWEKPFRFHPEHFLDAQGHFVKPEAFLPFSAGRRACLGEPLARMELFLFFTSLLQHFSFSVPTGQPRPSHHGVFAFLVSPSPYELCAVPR
# T1 sequence (O75116 whole entry): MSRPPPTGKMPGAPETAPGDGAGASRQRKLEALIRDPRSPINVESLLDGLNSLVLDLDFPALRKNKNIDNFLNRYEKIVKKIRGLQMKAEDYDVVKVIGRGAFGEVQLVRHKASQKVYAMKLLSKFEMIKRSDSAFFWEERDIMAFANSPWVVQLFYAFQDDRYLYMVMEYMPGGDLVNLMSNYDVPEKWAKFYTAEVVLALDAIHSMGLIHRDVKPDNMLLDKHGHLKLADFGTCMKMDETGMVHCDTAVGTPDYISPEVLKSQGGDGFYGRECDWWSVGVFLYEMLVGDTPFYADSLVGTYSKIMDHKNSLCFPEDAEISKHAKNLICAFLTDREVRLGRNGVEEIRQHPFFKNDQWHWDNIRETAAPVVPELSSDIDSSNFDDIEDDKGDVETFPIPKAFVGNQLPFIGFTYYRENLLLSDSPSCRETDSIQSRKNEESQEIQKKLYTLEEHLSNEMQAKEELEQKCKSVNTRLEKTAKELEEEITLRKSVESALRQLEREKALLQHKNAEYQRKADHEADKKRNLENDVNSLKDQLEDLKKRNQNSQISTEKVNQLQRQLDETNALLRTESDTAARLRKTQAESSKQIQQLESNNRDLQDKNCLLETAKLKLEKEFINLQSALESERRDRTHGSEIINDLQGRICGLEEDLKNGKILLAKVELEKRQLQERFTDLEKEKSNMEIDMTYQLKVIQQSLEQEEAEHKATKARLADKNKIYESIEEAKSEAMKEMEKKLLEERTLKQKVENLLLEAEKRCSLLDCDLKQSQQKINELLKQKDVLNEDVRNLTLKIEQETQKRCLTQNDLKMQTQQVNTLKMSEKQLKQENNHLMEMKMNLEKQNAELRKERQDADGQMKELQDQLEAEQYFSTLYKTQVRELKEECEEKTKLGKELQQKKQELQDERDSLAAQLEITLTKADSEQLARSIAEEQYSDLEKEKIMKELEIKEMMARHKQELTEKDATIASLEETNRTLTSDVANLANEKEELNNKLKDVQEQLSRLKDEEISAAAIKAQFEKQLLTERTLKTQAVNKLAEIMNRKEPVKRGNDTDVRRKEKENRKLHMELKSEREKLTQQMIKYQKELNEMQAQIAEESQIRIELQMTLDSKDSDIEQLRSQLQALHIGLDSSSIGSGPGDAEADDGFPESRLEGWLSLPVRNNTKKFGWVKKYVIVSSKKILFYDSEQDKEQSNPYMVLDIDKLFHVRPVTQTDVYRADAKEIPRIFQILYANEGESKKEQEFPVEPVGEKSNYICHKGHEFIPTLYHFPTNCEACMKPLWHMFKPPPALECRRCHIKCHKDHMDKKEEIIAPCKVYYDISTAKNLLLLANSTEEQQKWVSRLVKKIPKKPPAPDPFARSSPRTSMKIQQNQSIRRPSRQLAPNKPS
structure (smiles),measurement,setting,value
COc1ccc(C(=O)NCc2cccc(C(=O)NCCc3ccncc3)c2)cc1,IC50,[1],> 7000 µM
COc1cccc(C(=O)NCc2cccc(C(=O)NCCc3ccncc3)c2)c1,IC50,[1],> 7000 µM
CN(C)Cc1ccc(NC(=O)c2cccc(CNC(=O)Nc3ccc(C(N)=O)cc3)c2)cc1,IC50,[2],8 µM
same,IC50,[3],14 nM
COc1ccc(C(=O)NCc2cccc(C(=O)Nc3ccc4c(c3)CN(C)CC4)c2)cc1OC,IC50,Cytochrome P450 2D6,> 30 µM
same,IC50,[4],> 5 µM
same,IC50,[5],> 5 µM
same,IC50,Cytochrome P450 2C19,> 30 µM
same,IC50,Cytochrome P450 1A2,> 30 µM
same,IC50,[1],0.046 µM
same,IC50,Cytochrome P450 3A4 [6],> 30 µM
same,solubility,[7],> 85 µg/mL
same,IC50,[8],> 5 µM
same,Papp A→B,[9],0.3 ×10⁻⁶ cm/s
same,IC50,Cytochrome P450 2C9,> 30 µM
same,Papp B→A,[10],27.1 ×10⁻⁶ cm/s
same,half-life,[11],55 min
same,IC50,Rattus norvegicus,1.2 µM
same,Papp,[12],16 ×10⁻⁶ cm/s
same,IC50,Cytochrome P450 3A4 [13],1.7 µM
N#Cc1ccc(NC(=O)NCc2cccc(C(=O)Nc3ccc(CN)cc3)c2)cc1,IC50,[2],70 µM
same,IC50,[3],210 nM
N#Cc1ccc(NC(=O)NCc2cccc(C(=O)Nc3ccc4c(c3)CNCC4)c2)cc1,IC50,Cytochrome P450 2D6,> 30 µM
same,IC50,[4],1.6 µM
same,IC50,[5],> 5 µM
same,IC50,Cytochrome P450 2C19,> 30 µM
same,IC50,Cytochrome P450 1A2,> 30 µM
same,IC50,[1],0.014 µM
same,IC50,Cytochrome P450 3A4 [6],> 30 µM
same,IC50,[3],48 nM
same,solubility,[7],> 100 µg/mL
same,IC50,[8],> 5 µM
same,permeability,Caco-2,BLD
same,IC50,Cytochrome P450 2C9,22 µM
same,Papp B→A,[10],8.8 ×10⁻⁶ cm/s
same,half-life,[11],189 min
same,IC50,Rattus norvegicus,8.5 µM
same,IC50,Cytochrome P450 3A4 [13],5.9 µM
COc1ccc(C(=O)NCc2cccc(C(=O)Nc3ccc(CN(C)C)cc3)c2)cc1,IC50,[3],> 6500 nM
CN(C)Cc1ccc(NC(=O)c2cccc(CNC(=O)Nc3ccc(C#N)cc3)c2)cc1,IC50,[4],> 5 µM
same,IC50,[5],> 5 µM
same,IC50,[1],0.065 µM
same,IC50,[3],160 nM
same,IC50,[8],> 5 µM
COc1ccc(CNC(=O)c2cccc(C(=O)NCCC3CCCNC3)c2)cc1OC (configuration not stated),IC50,[1],> 6000 µM
COc1ccc(NC(=O)Nc2cccc(C(=O)NCCC3CCCNC3)c2)cc1OC (configuration not stated),IC50,[1],> 7000 µM
CN(C)Cc1ccc(NC(=O)c2cccc(CNC(=O)Nc3ccc(C#N)c(Cl)c3)c2)cc1,IC50,[2],10 µM
same,IC50,[3],45 nM
N#Cc1ccc(NC(=O)NCc2cccc(C(=O)NCCC3CCNCC3)c2)cc1,IC50,[2],65 µM
O=C(NCCc1ccncc1)c1cccc(CNC(=O)c2ccc3c(c2)OCO3)c1,IC50,[1],> 7000 µM
N#Cc1cccc(NC(=O)NCc2cccc(C(=O)NCCc3ccncc3)c2)c1,IC50,[1],5.5 µM
COc1ccc(C(=O)NCc2cccc(C(=O)NCCC3CCNCC3)c2)cc1OC,IC50,Cytochrome P450 2D6,> 30 µM
same,IC50,[4],> 5 µM
same,IC50,[5],> 5 µM
same,IC50,Cytochrome P450 2C19,> 30 µM
same,IC50,Cytochrome P450 1A2,> 30 µM
same,IC50,Cytochrome P450 3A4 [6],> 30 µM
same,solubility,[7],67 µg/mL
same,IC50,[8],> 5 µM
same,Papp A→B,[9],0.1 ×10⁻⁶ cm/s
same,IC50,Cytochrome P450 2C9,> 30 µM
same,Papp B→A,[10],0.6 ×10⁻⁶ cm/s
same,half-life,[11],87 min
same,Papp,[12],0.6 ×10⁻⁶ cm/s
same,IC50,Cytochrome P450 3A4 [13],> 30 µM
COc1ccc(NC(=O)NCc2cccc(C(=O)NCCC3CCCNC3)c2)cc1OC (configuration not stated),IC50,[2],1600 µM
COc1ccc(C(=O)NCc2cccc(C(=O)Nc3ccc(CN(C)C)cc3)c2)cc1C(F)(F)F,IC50,[2],160 µM
same,IC50,[3],350 nM
COc1ccc(C(=O)NCc2cccc(C(=O)Nc3ccc4c(c3)CCNC4)c2)cc1OC,IC50,[2],100 µM
same,IC50,[3],320 nM
COc1ccc(S(=O)(=O)NCc2cccc(C(=O)NCCC3CCCNC3)c2)cc1OC (configuration not stated),IC50,[1],> 6000 µM
COc1ccc(C(=O)NCc2cccc(C(=O)Nc3ccc4cnccc4c3)c2)cc1OC,IC50,[2],685 µM
CN(C)Cc1ccc(NC(=O)c2cccc(CNC(=O)c3ccc(C#N)cc3)c2)cc1,IC50,[3],> 6500 nM
N#Cc1cccc(NC(=O)NCc2cccc(C(=O)NCC3CCCO3)c2)c1 (racemic),IC50,[1],3.5 µM
CN(C)Cc1ccc(NC(=O)c2cccc(CNC(=O)Nc3ccc(C(N)=O)c(Cl)c3)c2)cc1,IC50,[2],74 µM
same,IC50,[3],180 nM
COc1cccc(C(=O)NCc2cccc(C(=O)Nc3ccc(CN(C)C)cc3)c2)c1,IC50,[1],> 7 µM
same,IC50,[3],> 7000 nM
CN(C)Cc1ccc(NC(=O)c2cccc(CNC(=O)Nc3cccc(C(N)=O)c3)c2)cc1,IC50,[2],240 µM
same,IC50,[3],290 nM
N#Cc1ccc(NC(=O)NCc2cccc(NC(=O)CCC3CCCNC3)c2)cc1 (configuration not stated),IC50,[2],110 µM
CN(C)Cc1ccc(NC(=O)c2cccc(CNC(=O)c3ccc(OC(F)(F)F)c(Cl)c3)c2)cc1,IC50,[2],670 µM
same,IC50,[3],1300 nM
CCCNC(=O)c1cccc(CNC(=O)c2ccc(OC)c(OC)c2)c1,IC50,[1],5 µM
COc1ccc(NC(=O)Cc2cccc(NC(=O)CCC3CCCNC3)c2)cc1OC (configuration not stated),IC50,[2],37 µM
Cc1ccc(C(=O)NCc2cccc(C(=O)NCCc3ccncc3)c2)cc1C,IC50,[1],> 7000 µM
COc1ccc(CC(=O)Nc2cccc(C(=O)NCCC3CCCNC3)c2)cc1OC (configuration not stated),IC50,[2],3200 µM
COc1ccc(C(=O)Nc2cccc(C(=O)NCCC3CCCNC3)c2)cc1OC (configuration not stated),IC50,[1],> 6000 µM
CN(C)Cc1ccc(NC(=O)c2cccc(CNC(=O)c3ccc(O)c(O)c3)c2)cc1,IC50,[1],> 6 µM
same,IC50,[3],> 6400 nM
COc1ccc(C(=O)NCc2cccc(C(=O)NCCC3CCCNC3)c2)cc1OC (configuration not stated),IC50,Cytochrome P450 2D6,> 30 µM
same,IC50,[4],4.4 µM
same,IC50,[5],> 5 µM
same,IC50,Cytochrome P450 2C19,> 30 µM
same,IC50,Cytochrome P450 1A2,> 30 µM
same,IC50,[1],0.053 µM
same,IC50,Cytochrome P450 3A4 [6],> 30 µM
same,IC50,[3],140 nM
same,solubility,[7],16 µg/mL
same,IC50,[8],> 5 µM
same,Papp A→B,[9],0.1 ×10⁻⁶ cm/s
same,IC50,Cytochrome P450 2C9,> 30 µM
same,Papp B→A,[10],0.8 ×10⁻⁶ cm/s
same,half-life,[11],139 min
same,IC50,Cytochrome P450 3A4 [13],> 30 µM
COc1ccc(C(=O)NCc2cccc(C(=O)NCC3CCCO3)c2)cc1OC (racemic),IC50,[2],1.2 µM
N#Cc1cccc(NC(=O)NCc2cccc(C(=O)NCCC3CCCNC3)c2)c1 (configuration not stated),IC50,[4],> 5 µM
same,IC50,[5],> 5 µM
same,IC50,[1],0.089 µM
same,IC50,[8],> 5 µM
COc1ccc(C(=O)NCc2cccc(C(=O)NCCC3CCCN(C)C3)c2)cc1OC (configuration not stated),IC50,[2],102 µM
O=S(=O)(c1cccc2cnccc12)N1CCCNCC1 [FASUDIL],IC50,Rattus norvegicus,6.1 µM
